Data: patent US5314886A, “N-substituted lactams useful as cholecystokinin antagonists” (priority 1992, dated 1994)
Where a name gives a salt, the structure may show the parent alone.

Assays:
CCK-A = target: T1, CCK-A (Rattus norvegicus, UniProt P30551); assay: Displacement of 125I-CCK-OP binding to rat pancreatic membranes (CCK-A binding); settings: for inhibition at 1 µM: read-out: CCK-A binding rat pancreatic membranes: percent displacement of 125I-CCK-OP; for IC50: 125I-CCK-OP
T1 sequence (P30551 1-444): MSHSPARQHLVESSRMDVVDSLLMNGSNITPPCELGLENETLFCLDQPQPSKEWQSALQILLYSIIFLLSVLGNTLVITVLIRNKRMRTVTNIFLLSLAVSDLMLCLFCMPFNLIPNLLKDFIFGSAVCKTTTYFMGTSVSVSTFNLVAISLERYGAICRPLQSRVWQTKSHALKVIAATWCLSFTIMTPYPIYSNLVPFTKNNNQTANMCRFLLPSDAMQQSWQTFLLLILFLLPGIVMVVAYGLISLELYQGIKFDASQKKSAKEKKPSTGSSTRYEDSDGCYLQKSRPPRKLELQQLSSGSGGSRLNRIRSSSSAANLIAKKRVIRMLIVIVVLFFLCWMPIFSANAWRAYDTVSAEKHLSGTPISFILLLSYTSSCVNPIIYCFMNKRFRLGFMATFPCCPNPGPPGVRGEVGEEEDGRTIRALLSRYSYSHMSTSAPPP

CCK-B = target: T2, CCK-B (Cavia porcellus, UniProt H0VZC5); assay: Displacement of 125I-CCK-OP binding to guinea pig brain homogenates (CCK-B binding); settings: guinea pig brain membranes; for inhibition at 10 µM: read-out: CCK-B binding GP brain membranes: percent displacement of 125I-CCK-OP; for IC50: 125I-CCK-OP, read-out: CCK-B binding GP brain membranes: IC50
T2 construct: Rat pancreas or guinea pig brain was homogenized; from tissue; host or cells: guinea pig brain homogenate (membrane pellet)
T2 sequence (H0VZC5 1-426): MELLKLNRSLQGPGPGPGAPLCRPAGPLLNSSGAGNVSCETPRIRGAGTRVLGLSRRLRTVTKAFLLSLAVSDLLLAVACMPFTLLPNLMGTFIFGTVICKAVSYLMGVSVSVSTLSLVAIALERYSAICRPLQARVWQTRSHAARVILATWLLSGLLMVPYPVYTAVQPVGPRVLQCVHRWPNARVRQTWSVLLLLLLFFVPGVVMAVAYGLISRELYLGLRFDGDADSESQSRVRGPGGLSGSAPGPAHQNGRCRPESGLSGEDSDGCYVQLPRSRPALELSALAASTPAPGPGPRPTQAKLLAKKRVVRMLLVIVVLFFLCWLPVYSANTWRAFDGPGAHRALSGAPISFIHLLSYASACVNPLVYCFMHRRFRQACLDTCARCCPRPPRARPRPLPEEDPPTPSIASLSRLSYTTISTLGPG
Method: Percent displacement of ^125 I-CCK-OP binding to rat pancreatic membrane and guinea pig brain homogenates by compounds of the instant invention at different concentrations was used to quantify CCK-A and CCK-B receptor binding, respectively.
Binding of 125-CCK-OP to rat pancreas (CCK-A) and guinea pig brain (CCK-B) homogenates.
Rat pancreas or guinea pig brain was homogenized in 50 and 20 volumes, respectively, of 50 mM Tris-HCl buffer (pH 7.8 at 25° C.) with a Brinkmann polytron homogenizer. The homogenates were centrifuged twice at 50,000 x g for 20 min with an intermediate rehomogenization in fresh buffer. The final pellets were resuspended in 20 volumes (brain) or 40 volumes (pancreas) of incubation buffer [50 mM Tris-HCl, 5 mM MgCl2, 0.2% BSA, 5 mM dithiothreitol, 0.14 mg/ml bacitracin, pH 7.9 at 25° C.]. One milliliter of the final homogenate from brain or pancreas was diluted to 50 mL with incubation buffer to use in the binding assay.
Binding experiments were performed in a final volume of 1 mL in 13×100 mm borosilicate disposable culture tubes. To duplicate tubes were added 890 μL of freshly resuspended pancreas or brain homogenate; 73,000 dpm of […] (final concentration, 12 pM) and 10 μL of DMSO containing displacing agents (compounds or reference compounds, at the desired final concentrations). Nonspecific (nonsaturable) binding was determined in the presence of 1 μM unlabeled CCK-OP. After incubation for 30 min at 37° C. the binding was stopped by rapid filtration under a reduced pressure through glass fiber FPD-105 Whatman GF/B filters on Harvester and washed twice with 5 mL of ice-cold Tris buffer (50 mM Tris-HCl, pH 7.8). The radioactivity on the filters was counted in a gama counter. […] Specific binding was defined as the excess binding over that in blanks containing 1 μM unlabeled CCK-OP.
Determination of IC50 for displacing agents

CCK receptors = assay: Rat gastric emptying: reversal of CCK-delayed gastric emptying; format: in vivo; settings: IP, CCK 100 μg/Kg i.p.
Method: Rat Gastric Emptying Protocol
A test meal for measuring gastric emptying in rats was prepared. Ten grams of methylcellulose (2% solution=15 centipoises; Aldrich Chemical Company, Milwaukee, Wisc. was added to 200ml of cold water and mixed at 20,000 rpm in a Waring blender to insure dispersion and hydration of the methylcellulose. In addition, two beef bouillon cubes (Wyler's, Columbus, Ohio) dissolved in 100 ml of warm water was added to the mixture, followed by 16 g of casein (Hammersten, Schwartz/Mann, Orangeburg, N.Y.), 8 g of powdered confectioners sugar and 8 g of cornstarch. The ingredients were mixed for two minutes at 20,000 rpm and the resultant test meal was refrigerated for 48 hours to allow trapped air to escape. Male Charles River Rats, Crl: COBS, CD (SD) BR Strain, 180-200 g body weight, were used in groups of six animals. The animals were food deprived for 24 hours prior to the experiment with access to water ad libitum. The compounds to be evaluated were prepared in a 0.5% aqueous methylcellulose solution. If insoluble, the mixture was homogenized for two minutes at 5500 rpm using a Try-R-Stir-R. The compounds were given intraperitoneally or intragastrically at a volume of 5 ml/kg, 60 minutes or 90 min, respectively, before the test meal. Control animals received only the vehicle. Cholecystokinin (100 μg/Kg, i.p.) was given 30 minutes before the test meal to delay gastric emptying by an effect elicited through CCK receptors. Sixty minutes after the test meal (2.0 ml/rat, i.g.), the rats were sacrificed by CO2 asphyxiation. The stomachs were removed intact and weighed. The stomachs were kept opened, gently rinsed with tap water, blotted dry with paper toweling, and the empty stomach weighed. The difference between the weight of the full and empty stomach is indicative of the amount of meal remaining in the stomach. The amount of meal remaining in the stomach was subtracted from the weight of 3 ml of the test meal to determine the amount of food emptied from the stomach during the test. Weight of the test meal was determined by weighing three samples (3 ml) at the beginning and three samples at the end of each experiment and calculating the mean. The mean and standard error of the amount of meal emptied were calculated for at least 5 doses of compound, and expressed as percent change from control.

Structure (SMILES) | inhibition at 1 µM (CCK-A) [%] | inhibition at 10 µM (CCK-B) [%] | CCK-delayed gastric emptying: ED50 (CCK receptors) [mpk] | IC50 (CCK-A) [nM] | IC50 (CCK-B) [nM]
CC(C)(C)OC(=O)[C@@H]1CN(c2ccccc2)C(=O)[C@@H]1NC(=O)c1ccc2ccccc2c1 (relative stereo) [1,1-Dimethylethyl cis-4-[(2-naphthalenylcarbonyl)amino]-5-oxo-1-phenyl-3-pyrrolidinecarboxylate] | 32 | 35 | – | – | –
O=C(N[C@@H]1C(=O)N(c2ccccc2)C[C@H]1C(=O)O)c1ccc2ccccc2c1 (relative stereo) [41 trans] | – | 22 | 3.2 | – | –
CCCCCN1C[C@H](C(=O)O)[C@H](NC(=O)Nc2ccc(Cl)cc2)C1=O (relative stereo) [47 cis] | – | – | – | > 1000 | –
CCCCCN1C[C@@H](C(=O)O)[C@H](NC(=O)Nc2ccc(Cl)cc2)C1=O (relative stereo) [47 trans] | – | – | – | > 1000 | –
CCCCCN1C[C@@H](C(=O)O)[C@@H](NC(=O)c2cnc3ccccc3c2)C1=O (relative stereo) [Example 27, cis-5-oxo-1-pentyl-4-[(3-quinolinylcarbonyl)amino]-3-pyrrolidinecarboxylic acid, monohydrochloride] | – | – | – | 250 | > 10000
O=C(N[C@@H]1C(=O)N(c2ccccc2F)C[C@@H]1C(=O)O)c1cnc2ccccc2c1 (relative stereo) [Example 28, cis-1-(2-fluorophenyl)-5-oxo-4-[(3-quinolinylcarbonyl)amino]5-oxo-3-pyrrolidinecarboxylic acid] | – | – | – | – | > 10000
O=C(N[C@@H]1C(=O)N(c2ccccc2)C[C@H]1C(=O)O)c1cc2ccccc2[nH]1 (relative stereo) [Example 30, trans-4-[(1H-Indol-2-ylcarbonyl)amino]-5-oxo-1-phenyl-3-pyrrolidinecarboxylic acid] | – | – | – | 320 | –
CCCCCN1C[C@@H](C(=O)O)[C@@H](NC(=O)c2ccc(Cl)c(Cl)c2)C1=O (relative stereo) [Example 32, cis-4-[[(3,4-Dichlorophenyl)carbonyl]amino]-5-oxo-1-pentyl-3-pyrrolidinecarboxylic acid] | – | 49 | – | 300 | –
CCCCCN1C[C@@H](C(=O)O)[C@@H](NC(=O)Nc2ccc(Cl)c(Cl)c2)C1=O (relative stereo) [Example 34, cis-4-[[[(3,4-dichlorophenyl)amino]carbonyl]amino]-5-oxo-1-pentyl-3-pyrrolidinecarboxylic acid] | – | – | – | 350 | 6000
O=C(N[C@@H]1C(=O)N(c2ccccc2)C[C@H]1C(=O)O)c1ccc(Cl)c(Cl)c1 (relative stereo) [Example 35 (trans), trans-4-[[(3,4-dichlorophenyl)carbonyl]amino]-5-oxo-1-phenyl-3-pyrrolidinecarboxylic acid] | – | – | – | > 1000 | > 10000
O=C(Nc1ccc(Cl)c(Cl)c1)N[C@H]1C(=O)N(c2ccccc2)C[C@H]1C(=O)O (relative stereo) [Example 36 (cis), cis-4-[[[(3,4-dichlorophenyl)amino]carbonyl]amino]-5-oxo-1-phenyl-3-pyrrolidinecarboxylic acid] | – | – | – | 100 | 10000
O=C(Nc1ccc(Cl)c(Cl)c1)N[C@@H]1C(=O)N(c2ccccc2)C[C@H]1C(=O)O (relative stereo) [Example 36 (trans)] | – | 45 | – | > 1000 | –
CCCCCN1C[C@@H](C(=O)O)[C@H](NC(=O)c2ccc3ccccc3c2)C1=O (relative stereo) [Example 39, trans-4-[(2-Naphthalenylcarbonyl)amino]-5-oxo-1-pentyl-3-pyrrolidinecarboxylic acid] | – | – | – | > 10000 | –
CCCCCN1C[C@@H](C(=O)O)[C@@H](NC(=O)Nc2ccc3ccccc3c2)C1=O (relative stereo) [Example 40, cis-4-[[(2-Naphthalenylamino)carbonyl]amino]-5-oxo-1-pentyl-3-pyrrolidinecarboxylic acid] | – | – | – | 2800 | 10000
CCCCCN1C[C@@H](C(=O)O)[C@@H](NC(=O)c2ccc(Cl)cc2)C1=O (relative stereo) [Example 45] | – | – | – | > 1000 | > 10000
O=C(N[C@H]1C(=O)N(c2ccccc2)C[C@H]1C(=O)O)c1ccc(Cl)cc1 (relative stereo) [Example 46 (cis), cis-4-[[(4-Chlorophenyl)carbonyl]amino]-5-oxo-1-phenyl-3-pyrrolidinecarboxylic acid] | – | – | – | 1600 | > 10000
O=C(N[C@@H]1C(=O)N(c2ccccc2)C[C@H]1C(=O)O)c1ccc(Cl)cc1 (relative stereo) [Example 46 (trans), trans-4-[[(4-Chlorophenyl)carbonyl]amino]-5-oxo-1-phenyl-3-pyrrolidinecarboxylic acid] | – | – | – | 41000 | > 10000
O=C(Cc1c[nH]c2ccccc12)N[C@@H]1C(=O)N(c2ccccc2)C[C@H]1C(=O)O (relative stereo) [Example 51, trans-4-[(3-indolylacetyl)amino]-5-oxo-1-phenyl-3-pyrrolidinecarboxylic acid] | – | – | – | > 1000 | > 10000
O=C(N[C@@H]1C(=O)N(c2ccccc2)C[C@@H]1C(=O)N1CCCC1)c1ccc2ccccc2c1 (relative stereo) [Example 53, cis-1-[[3-[(2-Naphthalenylcarbonyl)amino]-2-oxo-1-phenyl-4-pyrrolidinyl]carbonyl]pyrrolidine] | – | 45 | – | 750 | –
O=C(N[C@@H]1C(=O)N(c2ccccc2)C[C@H]1C(=O)N1CCCC1)c1ccc2ccccc2c1 (relative stereo) [Example 55, trans-1-[[3-[(2-Naphthalenylcarbonyl)amino]-2-oxo-1-phenyl-4-pyrrolidinyl]carbonyl]pyrrolidine] | 27 | – | – | – | 10000
